Columns and labels:
blackgrass = test: Test B pre/postemergence blackgrass; assay type: in vivo, Alopecurus myosuroides
How it was run: (§1)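 Test chemicals in a non-phytotoxic solvent mixture with surfactant were sprayed preemergence onto planted seeds and postemergence onto plants 2 to 18 cm tall (1- to 4-leaf stage). After twelve to sixteen days in a greenhouse, injury was visually rated against untreated controls from 0 (no effect) to 10 (complete control).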

surinam grass = test: Test B pre/postemergence surinam grass; assay type: in vivo, Brachiaria decumbens
How it was run: as §1

cocklebur = test: Test B pre/postemergence cocklebur; assay type: in vivo, Xanthium strumarium
How it was run: as §1

corn = test: Test B pre/postemergence corn; assay type: in vivo, Zea mays
How it was run: as §1

crabgrass = test: Test B pre/postemergence crabgrass; assay type: in vivo, Digitaria sanguinalis
How it was run: as §1

giant foxtail = test: Test B pre/postemergence giant foxtail; assay type: in vivo, Setaria faberii
How it was run: as §1

morningglory = test: Test B pre/postemergence morningglory; assay type: in vivo, Ipomoea hederacea
How it was run: as §1

pigweed = test: Test B pre/postemergence pigweed; assay type: in vivo, Amaranthus retroflexus
How it was run: as §1

rape = test: Test B pre/postemergence rape; assay type: in vivo, Brassica napus
How it was run: as §1

soybean = test: Test B pre/postemergence soybean; assay type: in vivo, Glycine max
How it was run: as §1

sugar beet = test: Test B pre/postemergence sugar beet; assay type: in vivo, Beta vulgaris
How it was run: as §1

velvetleaf = test: Test B pre/postemergence velvetleaf; assay type: in vivo, Abutilon theophrasti
How it was run: as §1

wheat = test: Test B pre/postemergence wheat; assay type: in vivo, Triticum aestivum
How it was run: as §1

wild oat = test: Test B pre/postemergence wild oat; assay type: in vivo, Avena fatua
How it was run: as §1

purple nutsedge = test: Test B pre/postemergence purple nutsedge; assay type: in vivo, Cyperus rotundus
How it was run: as §1

rice = test: Test B flood test rice; assay type: in vivo, Oryza sativa
How it was run: (§2)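 Plants were grown to the 2-leaf stage before treatment with test chemical, then held in a greenhouse for twelve to sixteen days. Injury was visually rated against untreated controls on a 0–10 scale, where 0 is no effect and 10 is complete control.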

smallflower flatsedge = test: Test B flood test smallflower flatsedge; assay type: in vivo, Cyperus difformis
How it was run: as §2

duck salad = test: Test B flood test duck salad; assay type: in vivo, Heteranthera limosa
How it was run: as §2

bamyardgrass = test: Test B flood test barnyardgrass; assay type: in vivo, Echinochloa crus-galli
How it was run: as §2

[1] = Postemergence, Rate 250 g/ha, scale 0 to 10
[2] = Postemergence, Rate 500 g/ha, scale of 0 to 10 where 0 is no effect and 10 is complete control
[3] = Preemergence, Rate 62 g/ha, scale 0 to 10 (0 no effect, 10 complete control)
[4] = Preemergence, Rate 125 g/ha, scale of 0 to 10 where 0 is no effect and 10 is complete control
[5] = Preemergence, Rate 250 g/ha, scale 0 to 10, 0 is no effect, 10 is complete control
[6] = Preemergence, Rate 500 g/ha, scale 0 to 10, 0 is no effect, 10 is complete control
[7] = Rate 62 g/ha, Postemergence, scale of 0 to 10 where 0 is no effect and 10 is complete control
[8] = Rate 125 g/ha, Postemergence, scale 0 to 10, 0 is no effect, 10 is complete control
[9] = Postemergence block (flood test species), Rate 250 g/ha, scale 0 to 10
[10] = Postemergence section (flood test species), Rate 500 g/ha, scale of 0 to 10 where 0 is no effect and 10 is complete control
[11] = Rate 125 g/ha, Postemergence section (flood test species), scale 0 to 10, 0 is no effect, 10 is complete control
[12] = Rate 62 g/ha, Postemergence (flood test species), scale of 0 to 10 where 0 is no effect and 10 is complete control

For CC(C)N(C(=O)n1oc(=O)n(C2CCCCCC2)c1=O)C1=CCCCC1 [Compound 428], the “Blackgrass plant response rating” value (blackgrass; [1]) was 3, the “Blackgrass plant response rating” value (blackgrass; [2]) was 4 and the “Plant response rating, Blackgrass” value (blackgrass; [3]) was 0. The “Plant response rating, Blackgrass” value (blackgrass; [4]) was 0, the “Blackgrass plant response rating” value (blackgrass; [5]) was 0 and the “Blackgrass plant response rating” value (blackgrass; [6]) was 2. For the same compound, the “Blackgrass plant response rating” value (blackgrass; [7]) was 0, the “Blackgrass plant response rating” value (blackgrass; [8]) was 0 and the “B. signalgrass plant response rating” value (surinam grass; Postemergence, Rate 250 g/ha, scale 0 to 10, 0 no effect, 10 complete control) was 0. For the same compound, the “B. signalgrass plant response rating” value (surinam grass; [2]) was 0, the “Plant response rating, B. signalgrass” value (surinam grass; [3]) was 0 and the “Plant response rating, B. signalgrass” value (surinam grass; [4]) was 0. For the same compound, the “B. signalgrass plant response rating” value (surinam grass; [5]) was 0, the “B. signalgrass plant response rating” value (surinam grass; [6]) was 3 and the “B. signalgrass plant response rating” value (surinam grass; [7]) was 0. The “B. signalgrass plant response rating” value (surinam grass; [8]) was 0, the “Cocklebur plant response rating” value (cocklebur; [1]) was 0 and the “Cocklebur plant response rating” value (cocklebur; [2]) was 1. For the same compound, the “Plant response rating, Cocklebur” value (cocklebur; [3]) was 0, the “Plant response rating, Cocklebur” value (cocklebur; [4]) was 0 and the “Cocklebur plant response rating” value (cocklebur; [5]) was 0. The “Cocklebur plant response rating” value (cocklebur; [6]) was 0, the “Cocklebur plant response rating” value (cocklebur; [7]) was 0 and the “Cocklebur plant response rating” value (cocklebur; [8]) was 0. For the same compound, the “Corn plant response rating” value (corn; [1]) was 0, the “Corn plant response rating” value (corn; [2]) was 0 and the “Plant response rating, Corn” value (corn; [3]) was 0. For the same compound, the “Plant response rating, Corn” value (corn; [4]) was 0, the “Corn plant response rating” value (corn; [5]) was 0 and the “Corn plant response rating” value (corn; [6]) was 0. For the same compound, the “Corn plant response rating” value (corn; [7]) was 0, the “Corn plant response rating” value (corn; [8]) was 0 and the “Crabgrass plant response rating” value (crabgrass; [1]) was 0. For the same compound, the “Crabgrass plant response rating” value (crabgrass; [2]) was 3, the “Plant response rating, Crabgrass” value (crabgrass; [3]) was 2 and the “Plant response rating, Crabgrass” value (crabgrass; [4]) was 7. For the same compound, the “Crabgrass plant response rating” value (crabgrass; [5]) was 9, the “Crabgrass plant response rating” value (crabgrass; [6]) was 10 and the “Crabgrass plant response rating” value (crabgrass; [7]) was 0. For the same compound, the “Crabgrass plant response rating” value (crabgrass; [8]) was 0, the “Giant foxtail plant response rating” value (giant foxtail; [1]) was 0 and the “Giant foxtail plant response rating” value (giant foxtail; [2]) was 0. The “Plant response rating, Giant foxtail” value (giant foxtail; [3]) was 0, the “Plant response rating, Giant foxtail” value (giant foxtail; [4]) was 7 and the “Giant foxtail plant response rating” value (giant foxtail; [5]) was 8. For the same compound, the “Giant foxtail plant response rating” value (giant foxtail; [6]) was 10, the “Giant foxtail plant response rating” value (giant foxtail; [7]) was 0 and the “Giant foxtail plant response rating” value (giant foxtail; [8]) was 0. The “Morningglory plant response rating” value (morningglory; [1]) was 2, the “Morningglory plant response rating” value (morningglory; [2]) was 3 and the “Plant response rating, Morningglory” value (morningglory; [3]) was 0. The “Plant response rating, Morningglory” value (morningglory; [4]) was 0, the “Morningglory plant response rating” value (morningglory; [5]) was 0 and the “Morningglory plant response rating” value (morningglory; [6]) was 0. The “Morningglory plant response rating” value (morningglory; [8]) was 1, the “Redroot pigweed plant response rating” value (pigweed; [1]) was 0 and the “Redroot pigweed plant response rating” value (pigweed; [2]) was 3. The “Plant response rating, Redroot pigweed” value (pigweed; [3]) was 0, the “Plant response rating, Redroot pigweed” value (pigweed; [4]) was 0 and the “Redroot pigweed plant response rating” value (pigweed; [5]) was 0. For the same compound, the “Redroot pigweed plant response rating” value (pigweed; [6]) was 0, the “Redroot pigweed plant response rating” value (pigweed; [8]) was 0 and the “Rape plant response rating” value (rape; [1]) was 0. The “Rape plant response rating” value (rape; [2]) was 0, the “Plant response rating, Rape” value (rape; [3]) was 0 and the “Plant response rating, Rape” value (rape; [4]) was 0. For the same compound, the “Rape plant response rating” value (rape; [5]) was 0, the “Rape plant response rating” value (rape; [6]) was 0 and the “Rape plant response rating” value (rape; [8]) was 0. For the same compound, the “Soybean plant response rating” value (soybean; [1]) was 2, the “Soybean plant response rating” value (soybean; [2]) was 3 and the “Plant response rating, Soybean” value (soybean; [3]) was 0. For the same compound, the “Plant response rating, Soybean” value (soybean; [4]) was 0, the “Soybean plant response rating” value (soybean; [5]) was 0 and the “Soybean plant response rating” value (soybean; [6]) was 0. For the same compound, the “Soybean plant response rating” value (soybean; [8]) was 1, the “Sugarbeets plant response rating” value (sugar beet; [1]) was 0 and the “Sugarbeets plant response rating” value (sugar beet; [2]) was 0. The “Plant response rating, Sugarbeets” value (sugar beet; [3]) was 0, the “Plant response rating, Sugarbeets” value (sugar beet; [4]) was 0 and the “Sugarbeets plant response rating” value (sugar beet; [5]) was 0. The “Sugarbeets plant response rating” value (sugar beet; [6]) was 0, the “Sugarbeets plant response rating” value (sugar beet; [8]) was 0 and the “Velvetleaf plant response rating” value (velvetleaf; [1]) was 2. The “Velvetleaf plant response rating” value (velvetleaf; [2]) was 7, the “Plant response rating, Velvetleaf” value (velvetleaf; [3]) was 0 and the “Plant response rating, Velvetleaf” value (velvetleaf; [4]) was 0. For the same compound, the “Velvetleaf plant response rating” value (velvetleaf; [5]) was 0, the “Velvetleaf plant response rating” value (velvetleaf; [6]) was 0 and the “Velvetleaf plant response rating” value (velvetleaf; [8]) was 0. The “Wheat plant response rating” value (wheat; [1]) was 0, the “Wheat plant response rating” value (wheat; [2]) was 0 and the “Plant response rating, Wheat” value (wheat; [3]) was 0. The “Plant response rating, Wheat” value (wheat; [4]) was 0, the “Wheat plant response rating” value (wheat; [5]) was 0 and the “Wheat plant response rating” value (wheat; [6]) was 0. The “Wheat plant response rating” value (wheat; [8]) was 0, the “Wild oats plant response rating” value (wild oat; [1]) was 0 and the “Wild oats plant response rating” value (wild oat; [2]) was 0. The “Plant response rating, Wild oats” value (wild oat; [3]) was 0, the “Plant response rating, Wild oats” value (wild oat; [4]) was 0 and the “Wild oats plant response rating” value (wild oat; [5]) was 0. For the same compound, the “Wild oats plant response rating” value (wild oat; [6]) was 2, the “Wild oats plant response rating” value (wild oat; [8]) was 0 and the “Nutsedge plant response rating” value (purple nutsedge; [1]) was 0. For the same compound, the “Nutsedge plant response rating” value (purple nutsedge; [2]) was 0, the “Plant response rating, Nutsedge” value (purple nutsedge; [3]) was 0 and the “Plant response rating, Nutsedge” value (purple nutsedge; [4]) was 0. The “Nutsedge plant response rating” value (purple nutsedge; [5]) was 0, the “Nutsedge plant response rating” value (purple nutsedge; [6]) was 0 and the “Nutsedge plant response rating” value (purple nutsedge; [8]) was 0. For the same compound, the “Rice plant response rating” value (rice; [9]) was 2, the “Rice plant response rating” value (rice; [10]) was 2 and the “Rice plant response rating” value (rice; [11]) was 0. For the same compound, the “S. Flatsedge plant response rating” value (smallflower flatsedge; [9]) was 0, the “S. Flatsedge plant response rating” value (smallflower flatsedge; [10]) was 9 and the “S. Flatsedge plant response rating” value (smallflower flatsedge; [11]) was 0. For the same compound, the “Ducksalad plant response rating” value (duck salad; [9]) was 3, the “Ducksalad plant response rating” value (duck salad; [10]) was 5 and the “Ducksalad plant response rating” value (duck salad; [12]) was 0. The “Ducksalad plant response rating” value (duck salad; [11]) was 0, the “Barnyardgrass plant response rating” value (bamyardgrass; [9]) was 2 and the “Barnyardgrass plant response rating” value (bamyardgrass; [10]) was 5. The “Barnyardgrass plant response rating” value (bamyardgrass; [12]) was 0 and the “Barnyardgrass plant response rating” value (bamyardgrass; [11]) was 0.
